# From PubChem BioAssay (NCI)
#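 Dose response: 5 concentrations. Exposure: 48 h. Format: 96-well plates. Endpoint: linear interpolation; highest concentration if not reached. The concentration for 50% growth inhibition is given as GI50. Definition used: TGI = concentration required for complete inhibition of growth.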
# Columns and labels:
# Assay in all cases: NCI anticancer screen, dose series, 48 h
# 786-0 renal = tested on: 786-0 renal
# A498 renal = tested on: A498 renal
# CAKI-1 renal = tested on: CAKI-1 renal
# KM12 colon = tested on: KM12 colon
# MALME-3M melanoma = tested on: MALME-3M melanoma
# NCI-H23 lung = tested on: NCI-H23 lung
# SF-295 CNS = tested on: SF-295 CNS
# SNB-19 CNS = tested on: SNB-19 CNS
# SNB-75 CNS = tested on: SNB-75 CNS
# UACC-62 melanoma = tested on: UACC-62 melanoma
SMILES,GI50 (786-0 renal),TGI (786-0 renal),GI50 (A498 renal),TGI (A498 renal),GI50 (CAKI-1 renal),TGI (CAKI-1 renal),GI50 (KM12 colon),TGI (KM12 colon),GI50 (MALME-3M melanoma),TGI (MALME-3M melanoma),GI50 (NCI-H23 lung),TGI (NCI-H23 lung),GI50 (SF-295 CNS),TGI (SF-295 CNS),GI50 (SNB-19 CNS),TGI (SNB-19 CNS),GI50 (SNB-75 CNS),TGI (SNB-75 CNS),GI50 (UACC-62 melanoma),TGI (UACC-62 melanoma)
Cc1ccc(CNc2c3ccccc3nc3cc(NC(=O)CCN4CCCC4)ccc23)cc1,0.732 µM,2.04 µM,1.13 µM,2.38 µM,1.23 µM,3.91 µM,0.534 µM,1.79 µM,1.51 µM,2.92 µM,0.518 µM,1.81 µM,1.04 µM,2.35 µM,0.624 µM,1.92 µM,1.06 µM,2.26 µM,1.4 µM,2.74 µM
CN1c2ccccc2N(C)C23N(C)c4ccccc4N(C)C12N(C)c1ccccc1N3C (stereo not given),–,> 100 µM,–,> 100 µM,–,> 100 µM,–,> 100 µM,–,> 100 µM,–,> 100 µM,–,> 100 µM,–,> 100 µM,–,> 100 µM,–,> 100 µM
CCc1ccc(NC(=O)COC(=O)c2cc([N+](=O)[O-])ccc2Sc2nnnn2C)cc1,21.1 µM,72.9 µM,21.5 µM,74.9 µM,13.7 µM,46.5 µM,19.6 µM,> 100 µM,24.2 µM,> 100 µM,9.79 µM,34.6 µM,17.5 µM,49.4 µM,16.5 µM,52.1 µM,13.1 µM,35 µM,15.2 µM,48 µM
Clc1nc(Cl)c2ncn(C/C=C/COc3cccc(OC/C=C/Cn4cnc5c(Cl)nc(Cl)nc54)c3)c2n1,> 100 µM,> 100 µM,> 100 µM,> 100 µM,> 100 µM,> 100 µM,56.5 µM,> 100 µM,> 100 µM,> 100 µM,> 100 µM,> 100 µM,> 100 µM,> 100 µM,> 100 µM,> 100 µM,57.1 µM,> 100 µM,> 100 µM,> 100 µM
Nc1nc(Nc2ccc(C3CCC(N4CCOCC4)CC3)cc2)nn1-c1ccccn1 (stereo not given),2.22 µM,11.4 µM,5 µM,20.1 µM,2.44 µM,> 52.2 µM,0.18 µM,38 µM,5.58 µM,> 46 µM,2.61 µM,47.7 µM,2.92 µM,10.9 µM,7.38 µM,> 100 µM,1.9 µM,11.9 µM,7.27 µM,> 88.3 µM
O=C(NN1C(=O)CSC12CCCC2)c1[nH]c2ccc(Br)cc2c1-c1ccccc1,22.3 µM,> 100 µM,> 100 µM,> 100 µM,32.8 µM,> 100 µM,28.5 µM,> 100 µM,38.3 µM,> 100 µM,41.1 µM,> 100 µM,24.2 µM,69.7 µM,54.1 µM,> 100 µM,46.1 µM,> 100 µM,19.7 µM,> 100 µM
